Measured values taken from article PMC8607422, “Development of a novel TLR8 agonist for cancer immunotherapy” (Molecular Biomedicine, 2020).

What was measured:
[1] = target: T1, hTLR4 (Homo sapiens, UniProt O00206+Q9Y6Y9); assay: HEK-Blue hTLR4 SEAP reporter agonist assay; type: cell-based; settings: HEK-Blue hTLR4 cells, highest concentration 50 μM
T1 construct: host or cells: HEK-Blue hTLR4
Source text: (§1) HEK-Blue™ hTLR4, 7, 8 and 9 cell lines were purchased from InvivoGen (Hong Kong). The cells express the human TLR gene and NF-κB/AP-1-inducible SEAP (secreted embryonic alkaline phosphatase) reporter gene. SEAP levels produced upon TLR stimulation can be determined by QUANTI-Blue™. In the cell-based assay, the main reagents used were QUANTI-Blue™ (InvivoGen) and ATPlite 1 Step (Perkin Elmer). The main instruments used were the microplate reader SpectraMax 340PC (Molecular Device) and Envision (Perkin Elmer). Motolimod and DN052 were synthesized in house. […] The compounds were in 10 mM stock solution in DMSO and stored at − 20°C. The compounds were serially diluted in the concentration range from 0.5 nM to 15 μM (up to 50 μM in the hTLR4, hTLR7 and hTLR9 assays) and added to 96-well plates. DMSO was used as the negative control. LPS-EK, R848, motolimod and ODN2006 were used as the positive control for TLR4, 7, 8 and 9, respectively. The cells were cultured and treated with the compounds at 37°C, 5%CO2 for 24 h. […] After 1.5 h of incubation, the optical density was measured using the spectrophotometer at 650 nm in the microplate reader of SpectraMax 340PC. The cell viability of each well was determined using ATPlite 1 Step following the manufacturer’s instruction. The luminescence signal in each well of plates was measured in the microplate reader of Envision.

[2] = Cell viability (ATPlite 1 Step) cytotoxicity assay; type: cell-based; settings: human, HEK-Blue hTLR7 and hTLR8 cells
Source text: as §1

[3] = target: T2, CYP 1A2 (Homo sapiens, UniProt P05177); assay: CYP inhibition assay in human liver microsomes; type: in vitro ADME
T2 construct: using human liver microsomes (BD Gentest); tissue BD Gentest; host or cells: human liver microsomes
T2 sequence (P05177 1-516): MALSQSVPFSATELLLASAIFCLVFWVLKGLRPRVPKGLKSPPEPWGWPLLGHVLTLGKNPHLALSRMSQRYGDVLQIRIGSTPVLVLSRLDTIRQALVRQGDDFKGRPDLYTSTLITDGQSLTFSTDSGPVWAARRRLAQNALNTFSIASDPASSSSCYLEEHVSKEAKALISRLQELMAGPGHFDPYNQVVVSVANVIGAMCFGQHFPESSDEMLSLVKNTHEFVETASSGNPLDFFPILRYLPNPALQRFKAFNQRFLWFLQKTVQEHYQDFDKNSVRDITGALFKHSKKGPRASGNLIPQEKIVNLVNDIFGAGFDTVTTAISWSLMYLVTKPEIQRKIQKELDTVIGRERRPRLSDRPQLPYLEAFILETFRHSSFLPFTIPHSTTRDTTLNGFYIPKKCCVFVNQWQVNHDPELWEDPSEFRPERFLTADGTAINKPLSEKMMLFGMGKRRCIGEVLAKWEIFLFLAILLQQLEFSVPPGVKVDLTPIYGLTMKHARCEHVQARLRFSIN
Experimental: (§2) CYP inhibition assay was conducted to evaluate the inhibitive potential of the compounds on CYP 1A2, 2C9, 2C19, 2D6 and 3A4 using human liver microsomes (BD Gentest). Curve-fitting was performed to calculate IC50 using a Sigmoidal (non-linear) dose-response model using GraphPad Prism (GraphPad Software Inc.).

[4] = target: T3, CYP 2D6 (Homo sapiens, UniProt P10635); assay: CYP inhibition assay in human liver microsomes; type: in vitro ADME
T3 construct: using human liver microsomes (BD Gentest); tissue BD Gentest; host or cells: human liver microsomes
T3 sequence (P10635 whole entry): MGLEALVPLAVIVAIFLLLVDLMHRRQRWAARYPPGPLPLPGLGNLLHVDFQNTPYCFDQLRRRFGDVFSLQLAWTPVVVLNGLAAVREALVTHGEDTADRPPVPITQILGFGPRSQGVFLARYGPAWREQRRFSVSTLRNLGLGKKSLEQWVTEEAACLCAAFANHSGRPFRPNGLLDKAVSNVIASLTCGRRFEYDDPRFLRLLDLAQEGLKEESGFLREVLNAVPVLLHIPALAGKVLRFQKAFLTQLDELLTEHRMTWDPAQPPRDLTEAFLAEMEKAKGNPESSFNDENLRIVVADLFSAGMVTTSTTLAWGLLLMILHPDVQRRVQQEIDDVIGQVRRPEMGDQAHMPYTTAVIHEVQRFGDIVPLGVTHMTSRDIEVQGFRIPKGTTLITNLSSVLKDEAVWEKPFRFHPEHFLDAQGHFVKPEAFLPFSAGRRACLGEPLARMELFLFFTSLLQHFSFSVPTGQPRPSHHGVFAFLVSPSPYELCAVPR
Experimental: as §2

[5] = system: serum cytokines; assay: In vivo cytokine induction in monkeys; design: species or system cynomolgus monkeys; settings: monkey, 1 mg/kg sc single dose
Experimental: Cynomolgus monkeys were purchased from Guangxi Xiongsen Primate Laboratory Animals Co., Ltd. (Guangxi, China) and three 3–4 years old male monkeys were used in each group. […] A single dose of motolimod was sc administered at 1 mg/kg. Blood samples were collected pre-dose, 6 and 24 h post-dose. Levels of cytokines including IFN-γ, IL-10, IL-1β, IL-6, IL-8, MIP-1α, MIP-1β, G-CSF, IL-12p40, IL-12p70 and TNF-α were measured using MSD ECL cytokine assay kit following the manufacturer’s protocol.

T1 sequence (O00206 24-839): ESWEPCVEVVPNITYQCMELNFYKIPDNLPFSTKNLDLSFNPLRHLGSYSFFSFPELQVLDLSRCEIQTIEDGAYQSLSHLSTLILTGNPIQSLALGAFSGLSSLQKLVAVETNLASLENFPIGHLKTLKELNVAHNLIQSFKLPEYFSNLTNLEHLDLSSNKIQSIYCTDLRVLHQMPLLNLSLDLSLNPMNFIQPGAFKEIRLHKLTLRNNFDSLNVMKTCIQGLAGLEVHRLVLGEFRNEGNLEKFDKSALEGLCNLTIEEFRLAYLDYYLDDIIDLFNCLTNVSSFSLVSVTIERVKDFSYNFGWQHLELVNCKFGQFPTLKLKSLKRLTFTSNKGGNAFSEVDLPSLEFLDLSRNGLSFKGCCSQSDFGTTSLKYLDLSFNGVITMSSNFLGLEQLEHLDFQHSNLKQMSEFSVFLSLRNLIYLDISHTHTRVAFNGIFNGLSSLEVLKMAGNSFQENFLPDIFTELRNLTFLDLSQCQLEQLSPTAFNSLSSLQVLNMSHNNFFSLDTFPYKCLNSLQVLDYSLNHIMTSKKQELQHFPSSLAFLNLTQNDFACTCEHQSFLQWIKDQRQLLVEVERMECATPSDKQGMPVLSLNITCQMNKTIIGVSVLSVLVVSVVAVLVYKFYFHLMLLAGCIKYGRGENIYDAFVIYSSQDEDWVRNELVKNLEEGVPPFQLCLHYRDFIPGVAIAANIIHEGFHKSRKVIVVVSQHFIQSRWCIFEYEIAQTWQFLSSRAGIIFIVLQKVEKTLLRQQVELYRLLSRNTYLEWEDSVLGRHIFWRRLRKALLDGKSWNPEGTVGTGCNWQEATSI
T1 sequence (Q9Y6Y9 17-160 limits assumed): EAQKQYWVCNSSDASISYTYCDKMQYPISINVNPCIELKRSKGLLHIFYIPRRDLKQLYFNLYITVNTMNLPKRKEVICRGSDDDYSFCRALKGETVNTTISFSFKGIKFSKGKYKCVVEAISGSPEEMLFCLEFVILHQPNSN

EC50 [1]: > 50 µM
IC50 [3]: > 10 µM
IC50 [4]: > 10 µM
Compound: CCCN(CCC)C(=O)C1=Cc2ccc(-c3ccc(C(=O)N4CCCC4)cc3)cc2N=C(N)C1 [Motolimod, motolimod]
CC50 at 24 h [2]: > 50 µM
serum G-CSF, Mean Values ([5]; 0 h (pre-dose)): 7.135 pg/mL
serum IFN-γ, Mean Values ([5]; 0 h (pre-dose)): 1.017 pg/mL
serum IL-1β, Mean Values ([5]; 0 h (pre-dose)): 0.000 pg/mL
serum IL-6, Mean Values ([5]; 0 h (pre-dose)): 1.510 pg/mL
serum IL-8, Mean Values ([5]; 0 h (pre-dose)): 0.000 pg/mL
serum IL-10, Mean Values ([5]; 0 h (pre-dose)): 0.271 pg/mL
serum IL-12p40, Mean Values ([5]; 0 h (pre-dose)): 131.413 pg/mL
serum IL-12p70, Mean Values ([5]; 0 h (pre-dose)): 2.582 pg/mL
serum MIP-1α, Mean Values ([5]; 0 h (pre-dose)): 71.636 pg/mL
serum MIP-1β, Mean Values ([5]; 0 h (pre-dose)): 93.266 pg/mL
serum G-CSF, Mean Values ([5]; 6 h): 345.154 pg/mL
serum IFN-γ, Mean Values ([5]; 6 h): 0.500 pg/mL
serum IL-1β, Mean Values ([5]; 6 h): 0.286 pg/mL
serum IL-6, Mean Values ([5]; 6 h): 342.661 pg/mL
serum IL-8, Mean Values ([5]; 6 h): 0.378 pg/mL
serum IL-10, Mean Values ([5]; 6 h): 15.222 pg/mL
serum IL-12p40, Mean Values ([5]; 6 h): 305.212 pg/mL
serum IL-12p70, Mean Values ([5]; 6 h): 5.154 pg/mL
serum MIP-1α, Mean Values ([5]; 6 h): 227.638 pg/mL
serum MIP-1β, Mean Values ([5]; 6 h): 1655.094 pg/mL
serum G-CSF, Mean Values ([5]; 24 h): 32.168 pg/mL
serum IFN-γ, Mean Values ([5]; 24 h): 0.462 pg/mL
serum IL-1β, Mean Values ([5]; 24 h): 0.099 pg/mL
serum IL-6, Mean Values ([5]; 24 h): 12.185 pg/mL
serum IL-8, Mean Values ([5]; 24 h): 0.119 pg/mL
serum IL-10, Mean Values ([5]; 24 h): 1.347 pg/mL
serum IL-12p40, Mean Values ([5]; 24 h): 118.409 pg/mL
serum IL-12p70, Mean Values ([5]; 24 h): 3.305 pg/mL
serum MIP-1α, Mean Values ([5]; 24 h): 87.417 pg/mL
serum MIP-1β, Mean Values ([5]; 24 h): 221.881 pg/mL
